Test results reported in ChEMBL document CHEMBL1157866, “Evaluation of anti-pigmentary effect of synthetic sulfonylamino chalcone” (Eur J Med Chem, 2010).
Active and inactive are the calls of the source. The rule behind the calls is not given here.

Tests used:
Tyrosinase [1] = biological target: T1, Tyrosinase (Agaricus bisporus, UniProt O42713); assay: (§1) Inhibition of monophenolase activity of mushroom tyrosinase using as L-tyrosine substrate by spectrophotometric analysis
T1 sequence (O42713 whole entry): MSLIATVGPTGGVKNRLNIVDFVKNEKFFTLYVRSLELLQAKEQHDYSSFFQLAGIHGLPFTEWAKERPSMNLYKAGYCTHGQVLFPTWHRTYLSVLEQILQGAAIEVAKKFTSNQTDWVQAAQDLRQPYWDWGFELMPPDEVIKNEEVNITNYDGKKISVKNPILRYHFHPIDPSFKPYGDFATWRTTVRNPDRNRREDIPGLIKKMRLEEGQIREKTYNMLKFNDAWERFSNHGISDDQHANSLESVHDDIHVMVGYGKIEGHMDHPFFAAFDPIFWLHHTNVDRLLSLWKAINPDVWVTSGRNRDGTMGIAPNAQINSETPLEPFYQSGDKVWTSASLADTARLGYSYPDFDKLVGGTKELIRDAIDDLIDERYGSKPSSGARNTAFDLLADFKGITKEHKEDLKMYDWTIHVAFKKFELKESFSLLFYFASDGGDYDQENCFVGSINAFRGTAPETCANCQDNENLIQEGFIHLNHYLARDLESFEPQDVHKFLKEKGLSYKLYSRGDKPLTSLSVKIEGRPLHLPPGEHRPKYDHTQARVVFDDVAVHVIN

B16 [2] = assay: Inhibition of alpha-MSH-induced melanin production in mouse B16 cells assessed as reduction pigmentation at 20 uM after 48 hrs; assay type: functional, cell-based
B16 [3] = assay: cells; details: Mus musculus, B16, 48 h
Tyrosinase [4] = biological target: T1, Tyrosinase; assay: Competitive inhibition of monophenolase activity of mushroom tyrosinase using as L-tyrosine substrate by Lineweaver-Burke plot analysis
[5] = biological target: T2, Tyrosinase (Agaricus bisporus) (UniProt O42713); assay: as §1
T2 sequence (whole entry): T1 sequence (O42713 whole entry)

Cavia porcellus [6] = assay: Reduction of pigmentation in UV-induced hyperpigmentation brown guinea pig model at 0.3% applied topically bid for 4 weeks; assay type: functional, organism-based
B16 [7] = assay: Reduction of alpha-MSH-induced tyrosinase related protein 1 expression in mouse B16 cells after 2 days by Western blot analysis; assay type: functional, cell-based
Cavia porcellus [8] = assay: Toxicity in UV-induced hyperpigmentation brown guinea pig model at 0.3% applied topically bid for 4 weeks; assay type: organism-based; details: in vivo, topical_or_ocular, 672 h
B16 [9] = assay: Inhibition of alpha-MSH-induced melanin production in mouse B16 cells after 48 hrs
B16 [10] = assay: Reduction of alpha-MSH-induced tyrosinase expression in mouse B16 cells after 2 days by Western blot analysis; assay type: functional, cell-based
[11] = Cytotoxicity against mouse B16 cells at 20 uM after 72 hrs by MTT assay; assay type: cell-based; details: read-out: Survival
B16 [12] = assay: Inhibition of melanin production in mouse B16 cells after 48 hrs; assay type: functional, cell-based
B16 [13] = assay: Reduction of alpha-MSH-induced tyrosinase related protein 2 expression in mouse B16 cells after 2 days by Western blot analysis; assay type: functional, cell-based
[14] = Cytotoxicity against mouse B16 cells at 30 uM after 72 hrs by MTT assay; assay type: cell-based; details: read-out: Survival
B16 [15] = assay: Reduction of alpha-MSH-induced microphthalmia-associated transcription factor expression in mouse B16 cells after 2 days by Western blot analysis; assay type: functional, cell-based
B16 [16] = assay: Cytotoxicity against mouse B16 cells up to 30 uM after 48 hrs by MTT assay; assay type: cell-based; details: b16, 48 h
[17] = Cytotoxicity against mouse B16 cells at 10 uM after 72 hrs by MTT assay; assay type: cell-based; details: read-out: Survival

Row | SMILES | IC50 (Tyrosinase [1]) | IC50 (B16 [3]) | Ki (Tyrosinase [4]) | Activity [5] | Activity (B16 [2]) | other results
1 | Nc1ccc(C(=O)/C=C/c2ccc(O)cc2)cc1 | 8.3 µM | 28.1 µM | 3.9 µM |  | Active | 
2 | O=C(/C=C/c1ccc(O)cc1)c1ccc(O)cc1 [4,4'-DIHYDROXYCHALCONE] | 4.8 µM | 48.7 µM | 2.9 µM |  | Active | 
3 | Cc1ccc(S(=O)(=O)Nc2ccc(C(=O)/C=C/c3ccc(O)cc3)cc2)cc1 | 23.3 µM | 10.4 µM | 12.6 µM | Dose-dependent effect | Active | Activity (Cavia porcellus [6]): Active; Activity (B16 [7]): Active; Activity (Cavia porcellus [8]): Non-toxic; Activity (B16 [9]): Dose-dependent effect; Activity (B16 [10]): Active; viability at 72 h, 20 µM [11]: 84%; Activity (B16 [12]): Active; Activity (B16 [13]): Active; viability at 72 h, 30 µM [14]: 78%; Activity (B16 [15]): Active; Activity (B16 [16]): Non-toxic; viability at 72 h, 10 µM [17]: 92%

The next lines start with results.

Row | IC50 (Tyrosinase [1]) | IC50 (B16 [3]) | Ki (Tyrosinase [4]) | Activity [5] | SMILES | Activity (B16 [2]) | other results
4 | 58.8 µM | 32.1 µM | 25.2 µM | Dose-dependent effect | O=C(/C=C/c1ccc(O)cc1)c1ccc(NS(=O)(=O)c2ccc(O)cc2)cc1 |  | 
5 | 15.2 µM |  | 11.4 µM | Dose-dependent effect | O=C(/C=C/c1ccc(O)cc1)c1ccc(NS(=O)(=O)c2ccc([N+](=O)[O-])cc2)cc1 |  | 
6 | 22.5 µM | 24.2 µM | 13.3 µM | Dose-dependent effect | O=C(/C=C/c1ccc(O)cc1)c1ccc(NS(=O)(=O)c2ccccc2)cc1 |  | 
7 | 30.7 µM | 21.2 µM | 16.7 µM | Dose-dependent effect | Nc1ccc(S(=O)(=O)Nc2ccc(C(=O)/C=C/c3ccc(O)cc3)cc2)cc1 |  | 
8 | 29.1 µM | 19.8 µM | 14.9 µM | Dose-dependent effect | O=C(/C=C/c1ccc(O)cc1)c1ccc(NS(=O)(=O)c2ccc(F)cc2)cc1 |  | 
